These results are taken from a melting point compilation (Tetko et al.; mined from patent text by program, amines drawn as free bases though some values may be those of a salt).

As usually defined, the melting point is the temperature, or range, at which the solid turns liquid. For `CCCn1c(=O)c2[nH]c(C(C)(C)C)nc2n(CCNC(C)=O)c1=O`, the melting point lay in the range of 194 to 195 °C. As for `CN(Cc1ccc2c(Br)c(OC(Cc3ccccc3)C(=O)O)ccc2c1)C(=O)c1oc2ccccc2c1CCc1ccccc1` (stereo not given), the figure is 87 to 90 °C; as for `Nc1cccc2c1C(=O)C1=C(CCCC1)C2=O`, 189 to 191 °C. As for `Cc1ncn(-c2nc(Cl)c(-c3ccccc3)c3ccccc23)c1C`, the figure is 164 to 165 °C; as for `CCc1ccccc1NC(=O)C(C#N)=CN(C)C`, 128 to 130 °C; as for `Cc1nc(-c2c(Cl)cc(C(F)(F)F)cc2Cl)[nH]c1C`, 281 to 282 °C. As for `COCC#Cc1cc(C(=O)OC)c(N)cc1C(F)(F)F`, the figure is 107 to 111 °C.

Regarding `CC(C)(C)OC(=O)N1CCCN(c2c(F)c(F)nc(F)c2F)CC1`, the melting point lay within 55 to 59 °C.

The molecule `C=C1CN(c2ccccc2)C1=O` returned a melting point of 57 to 58 °C. To `Cc1ccc(F)cc1C(=O)Nc1ccc(C(=O)N2CCc3cn[nH]c3-c3sccc32)c(Cl)c1` belongs 310 to 312 °C; to `Cc1cc(OCCCC#Cc2ccc(OC(F)(F)F)cc2)ccc1OCC(=O)O`, 125 to 127 °C; to `Fc1ccc2c(CCCC3CNCc4c3[nH]c3cnc5cc(Cl)ccc5c43)noc2c1` (stereo not given), 221 to 222 °C. The molecule `Cc1cc(Cl)ccc1-n1nc(O)c2c(=O)c3ccc(Cl)cc3[nH]c2c1=O` gave a melting point of 336 to 339 °C. Regarding `O=C1OC2(CCN(CCOC(c3ccccc3)c3ccccc3)CC2)c2ccccc21`, the melting point was 99 to 100 °C. As for `O=C1N(Cc2ccc(C(F)(F)F)o2)c2ccccc2C12COc1cc3c(cc12)OCCCO3` (stereo not given), the figure is 162 to 164 °C; as for `COc1ccc(C2CC(=O)N(c3ccccc3)C2)cc1OC` (stereo not given), 104 °C. For the molecule `Cc1c(C(O)C2CCc3c(c4ccccc4n3C)C2=O)ncn1C(c1ccccc1)(c1ccccc1)c1ccccc1` (stereo not given), the melting point lay within 141 to 147 °C. To `CC(C)(C)OC(=O)NCCCCCn1c(=O)c2cccc3ncc(c1=O)n32` belongs 82 to 83 °C. To `Cc1ccccc1CCNC(=O)c1c(Cl)ccc2nc(N3CCC(C(=O)O)CC3)ccc12` belongs 237 to 241 °C.

For `S=C(Cc1ccccc1N1CCOCC1)N1CCOCC1`, the melting point came to 140 °C.

For `CCC1(C)CC(O)CC(C)(C)N1OC(C)c1ccccc1` (stereo not given), the melting point fell in the range of 58 to 69 °C.

Turning to `CCn1c(=O)c2[nH]c(/C=C/c3cccc(F)c3)nc2n(CC)c1=O`, the melting point was greater than 270 °C.

As to `Cc1nc(C)c(-c2ccnc(Nc3ccc(N4CCCC4)cc3)n2)s1`, the melting point lay within 192 to 193 °C. The molecule `Cn1cc(-c2cc(-c3cnc4[nH]ncc4c3)ccn2)n(-c2ccc(C(C)(C)C#N)cc2)c1=O` showed a melting point of 294 °C.

`Nc1ncnc2c1ncn2CCO` gave a melting point of 236 °C. As for `CCCOc1ccc(C(=O)CBr)cc1-c1nc2c(CCC)nn(C)c2c(=O)[nH]1`, the figure is 136 to 137 °C; as for `OCc1ccc2oc(-c3ccc(O)cc3)cc2c1`, 248 to 250 °C. To `CCOC(=O)C(=CNC1CC1)C(=O)c1c(F)c(F)c(F)c(F)c1N(C)C` belongs 122 to 124 °C; to `CCOC(=O)C1Cc2ccc(NC)cc2NC1=O` (stereo not given), 171 to 172 °C. To `Cc1cnc2sc(SCc3ccccc3)nn2c1=O` belongs 130 to 132 °C; to `CCC(C)(C)NC(Nc1ccc2ncsc2c1)=C(C#N)S(C)(=O)=O`, 112 to 114 °C. Molecule `Cc1onc(-c2ccccc2)c1-c1cc(F)c(S(C)(=O)=O)c(F)c1` showed a melting point of 140 to 143 °C. For the molecule `CCC(=O)Nc1c(C(=O)c2cc(Cl)ccn2)[nH]c2cc(Cl)ccc12`, the melting point is 188 to 190 °C.

In turn, `CSC(=C[N+](=O)[O-])NCCSCc1cc(C)c(CN(C)C)s1` showed a melting point of 69 to 71 °C. To `CC(=O)c1ccc(-c2ccnc(Nc3ccc4c(c3)OCCO4)c2)cc1` belongs 178 to 180 °C; to `O=C(O)CCCc1ccc(-c2cccc(Cl)c2Cl)cc1`, 70 to 71 °C. Regarding `COc1ccc2c(c1Br)CCC1C(=O)NC(=O)C21` (stereo not given), the melting point was in the range of 243 to 245 °C. With `Nc1cc(I)c(-c2cc([N+](=O)[O-])c(N)cc2I)cc1[N+](=O)[O-]`, the melting point is 346 to 348 °C. In turn, `O=C(NCC(F)(F)F)c1ccc(C(F)(F)F)cc1` had a melting point of 117 °C. To `CCOC(=O)c1c(N2CCN(C(=O)c3cccs3)CC2)c2ccccc2[nH]c1=O` belongs 198 °C. As for `CSc1cccc2c1Sc1ccc(O)cc1N2`, the figure is 188 to 190 °C; as for `COc1cccc(CC(=O)O)c1OCCCc1cn(-c2cccc(C(F)(F)F)n2)nc1C(C)C`, 95 to 97 °C; as for `C[C@@H](n1cnc2cc(F)c(F)cc2c1=O)[C@](O)(Cn1cncn1)c1ccc(F)cc1F`, 212 to 213 °C. To `Cc1ccc(C(=S)c2ccc(Cl)cc2)cc1` belongs 134 °C. For `CN(C)c1cc2c(=O)n(NS(C)(=O)=O)c(=O)[nH]c2cc1C(F)(F)F`, the melting point fell in the range of 254 to 272 °C. As for `O=C(C=Cc1ccncc1)c1ccco1`, the figure is 122 to 124 °C. To `O=S(=O)(NCCc1ccccc1)c1cccc(-c2cc(-c3nc(-c4ccc(C(F)(F)F)cc4)cc(C(F)(F)F)n3)ccn2)c1` belongs 201 °C. As for `CCc1c(C(=O)C(N)=O)c2c(NCC(=O)O)cccc2n1Cc1ccccc1`, the figure is 151 to 157 °C; as for `CC(C)NCC(O)COc1ccc2c(c1)C(=O)OC2` (stereo not given), 95 to 97 °C; as for `CC(=O)NC[C@H]1CN(c2ccc(N3CCC(=C(C#N)n4ccnc4)CC3)c(F)c2)C(=O)O1`, 196 to 198 °C.

In turn, `CCN1C(=O)CN=C(c2ccccc2F)c2cc(C(C)=NO)ccc21` showed a melting point of 236 to 238 °C.

In turn, `CCS(=O)(=O)CCOc1cc(C)c(-c2cccc(COc3ccc(CCC(=O)O)c(F)c3)c2)c(C)c1` gave a melting point of 126 to 127 °C. Molecule `CCCC(=O)c1cc2nc(C=O)n(C)c2cc1C` displayed a melting point of 107 to 108 °C. Molecule `CSc1cnc2cc(C)sc2c1O` registered a melting point of 222 to 225 °C.

`CCCC(O)(CCC)c1c2c(nn1C)N(c1c(C)cc(C)cc1Cl)CCC2` displayed a melting point of 129 to 130 °C.

In the case of `CC(C)CCNC1(c2ccccc2Cl)C(=O)Nc2ccc(Cl)cc21` (stereo not given), the melting point worked out at 152 °C. On to `O=C1NCCCN2c3ccccc3CC12` (stereo not given), for which the melting point was found to be 159 °C. As for `CCC(CO)(c1cccs1)N(C)C` (stereo not given), the figure is 66 to 68 °C; as for `COc1ccc(-n2nc(Sc3ccc(-c4ccccc4)cc3)c(C)c(C#N)c2=O)cc1`, 205 to 207 °C. As for `Cc1oc(=O)c(Nc2ccccc2F)nc1Cl`, the figure is 126 to 129 °C; as for `O=C(O)C(CF)=NOCC=Cc1ccccc1`, 81 to 83 °C; as for `Cc1ccc(/C=C/c2nc(COc3ccc(CCCCn4ccnn4)cc3)co2)cc1`, 154 to 155 °C. As for `CC(=O)c1ccc(OCc2ccccc2)c2ncccc12`, the figure is 131 to 133 °C; as for `Cc1noc(C)c1Cn1cc(N2C(=O)CN(CCOc3ccccc3)C2=O)cn1`, 117 to 118 °C. Molecule `Cc1cc(C)c2c(c1)cc(C(=O)O)n2CC(=O)OC(C)(C)C` yielded a melting point of 210 °C.

As for `Cn1cc(C(=O)NCc2ccc(Cl)cc2)c(=O)c2cc(Br)oc21`, the melting point lay within 232 to 233 °C. For `O=C(Nc1ccc(CC2CCN(S(=O)(=O)N3CCCCC3)CC2)cc1)C(F)(F)F`, the melting point was in the range of 156 to 157 °C. To `CC(C)c1ccc2c(c1)OC1(O)c3cccc(O)c3C(=O)C21O` (stereo not given) belongs 205 to 207 °C.

For `O=C(C=Cc1ccc(O)c(O)c1)OCCc1ccccc1`, the melting point is 126 to 128 °C. To `CCOC(=O)c1ncn2c1CN=C(c1cccs1)c1cc(C#C[Si](C)(C)C)ccc1-2` belongs 124 to 127 °C; to `CCCN(CC(C)n1c(CCOC)nc2c(N)nc3ccccc3c21)C(N)=S` (stereo not given), 172 to 173 °C; to `CCCOc1c(C)cc(Cl)c2c(=O)c3ccccc3sc12`, 101 to 103 °C.

For the molecule `CCOC(=O)Cc1sc(Sc2cccc(C(F)(F)F)n2)nc1C`, the melting point was in the range of 56 to 57 °C. As for `O=c1[nH]c(COc2ccc(Cl)cc2)nc2nccnc12`, the figure is 267 to 269 °C; as for `CCN(CC)CCC(=O)NC1c2ccccc2-c2[nH]c(=O)c3nccn3c21` (stereo not given), 260 °C. To `CC1(C)CC(OC(=O)c2ccccc2)CC(C)(C)N1O` belongs 145 to 149 °C; to `CC(=O)c1cc2cnccc2n1S(=O)(=O)c1ccccc1`, 205 °C; to `CCCc1nn(-c2ccc(C(F)(F)F)cn2)cc1CCCOc1c(CC(=O)O)cnn1CC`, 125 to 126 °C.

On to `Cc1c(-c2ccc(OCc3ccccc3)cc2)n(Cc2ccc(OCCCN3CCCCC3)cc2)c2ccc(OCc3ccccc3)cc12`, for which the melting point fell in the range of 104 to 106 °C. Take `O=C(Nc1c(F)cc(F)cc1F)N(Cc1cc2ccccc2c2ccccc12)C1CCCCC1`: the melting point lay within 122 to 124 °C.

`O=C(O)C1C=CCn2c(=O)n(CO)c(=O)n21` (stereo not given) displayed a melting point of 175 to 178 °C. To `CCOC(=O)C(=O)c1scc(Br)c1Br` belongs 71 °C. To `CN(C(=O)C(C)(C)c1cc(C(F)(F)F)cc(C(F)(F)F)c1)c1cnc(N2CCOCC2)cc1-c1ccccc1Cl` belongs 134 to 136 °C; to `CCn1nccc1NC(=O)c1cc(C(=O)OC)c(O)c2ncc(Cc3ccc(F)cc3)cc12`, 219 to 220 °C. To `CC(C)C(=O)Nc1ccn2nc(-c3ccccc3)c(-c3ccc(=O)n(C(C)C)n3)c2c1` belongs 199 to 200 °C; to `CCN(CC)Cc1cccc(OCCCNc2nc(N)nn2C)c1`, 68 to 69 °C.

Turning to `CCOC(=O)Cn1nc(O)c2ccccc21`, the melting point is 181 to 182 °C. To `CCCCCCCNC(=O)N(C)c1cccc(-c2ccc(CCC(=O)O)cc2)c1` belongs 101 °C.

In turn, `Cc1cccc(Nc2c(N)cc(C(=O)O)cc2S(N)(=O)=O)c1` had a melting point of 280 to 282 °C.

`O=C(O)c1cccc2ccc(CBr)cc12` returned a melting point of 210 to 211 °C.
